Conditions: Fluid (supercritical or subcritical phases), Buoyancy - hydrostatic balance with magnetic suspension - one sinker

O=C=O [carbon dioxide]
Conditions	mass density [kg/m3]
323.2 K, 10968 kPa	497.981
323.24 K, 14966 kPa	698.2
323.24 K, 18962 kPa	770.445
323.24 K, 24961 kPa	833.514
323.25 K, 12967 kPa	633.58
323.25 K, 16965 kPa	739.597
323.25 K, 22962 kPa	815.681
323.25 K, 26959 kPa	849.181
323.25 K, 28037 kPa	856.967
323.26 K, 20966 kPa	795.018

Reference: the NIST ThermoML archive (doi:10.1016/j.jct.2015.07.014)
